In US7402575B2, “Methods of treating inflammation” (priority 2003, dated 2008):
Entries after “also recorded” stand apart in the source; their conditions may differ.

Assays:
[1] = system: right ventricular trabecular preparation; test: Adrenergic response to field stimulation or isoproterenol in right ventricular trabecular preparation; type: cell-based, dog; conditions: TAC 10^−4M
Text: Since myocardial depression in sepsis may also be related to a diminished sympathetic response, the possible role of Lzm-S in contributing to this effect was additionally investigated in the right ventricular preparation as previously described (18). Neural adrenergic stimulation was produced in which the pulse width of the electrical stimulus-trains was increased from 2 ms to 20 ms, keeping other stimulus parameters unchanged. The increase in tension seen with sympathetic nerve stimulation was calculated as a percent increase from basal twitch amplitude. In the protocol used, the adrenergic response was measured before and after 10^−10M, 10^−9M, and 10^−8M Lzm-S were added to the organ bath. The results obtained with Lzm-S were compared with those obtained in time control experiments in which equal volumes of KH were added to the preparation at identical intervals. In a second set of experiments, it was observed whether TAC prevented the decrease in the adrenergic response produced by Lzm-S. Either TAC (10^−4M) or KH was added to an organ bath, and the results obtained with TAC treatment were compared with those obtained without the addition of the inhibitor. […]

[2] = system: E. coli sepsis in dogs; test: Chitobiose given after 3.5 h of E. coli sepsis, reversal of myocardial depression; type: in vivo, dog; design: HR: unit not given here; conditions: for HR / Pwp: mean±SD
Procedure: The E. coli model used in this study was identical to that previously described. Sepsis was induced by the intravenous infusion of 10^10 colony forming units of live E. coli (designation 0111:B4). The bacteria were suspended in normal saline infusion, which was given over 0.5 h. A constant infusion of approximately 5×10^9 colony forming units/h of E. coli was then maintained for the remainder of the experiment.
During the experiment, the animals (16-21) kg were anesthetized with thiopental sodium (20 mg/kg iv) and constantly infused with sufentanil citrate (1 ug/min) and midazolam (5 ug/kg/min). The rates were adjusted to abolish the palpebral reflex. The animals were placed in the supine position; the trachea was intubated with an endotracheal tube; and the lungs were mechanically ventilated at a tidal volume of 20 ml/kg. The ventilator rate was initially set to maintain blood pH at approximately 7.35 and was changed as necessary over the course of the experiment to maintain blood pH as normal as possible. 100% oxygen was inspired to prevent hypoxemia from contributing to the results, and arterial oxygen tension was maintained greater than 500 mmHg over the course of the study in all experiments.
A thermister tipped catheter was advanced from the jugular vein into the pulmonary artery to measure pulmonary arterial pressure, mean pulmonary capillary wedge pressure (Pwp), right atrial pressure, thermodilution cardiac output (CO, Columbus Instruments, Ohio), and to obtain mixed venous oxygen blood samples. A polyethylene catheter was placed into the femoral artery to measure mean blood pressure (MAP) and to withdraw samples of blood for blood gas analysis. All catheters were connected to transducers (Cobe Laboratories) and were referenced relative to the left atrium. All transducers were connected to a chart recorder (Astro-Med, W Warwick, R.I.). Heart rate (HR) was measured from the recorder tracing. Stroke volume (SV) was calculated as CO/heart rate. Stroke work (SW) was calculated from SV×(MAP-Pwp).
After baseline measurements were obtained, bacteria were infused over a six hour period. Chitobiose was infused at 3.5 hours post sepsis after myocardial depression had already developed and was administered over a 0.5 h period. The dose used was 1000 mg (40 mg/kg) in which the drug was mixed in 100 ml D5W. Based on preliminary calculations, this dose could achieve an approximate plasma concentration of 0.5×10^−4 M. 100 mg/hr of chitobiose (5 mg/kg) mixed in 50 ml of D5W was then infused over the remaining course of the experiment. Measurements were obtained after 3.5 hr of sepsis, after treatment, and 1 and 2 hrs post treatment. Stroke work (SW) was the primary measurement of the myocardial contractility used in this study. Pulmonary capillary wedge pressure (Pwp) was used as an index of preload and was maintained constant between conditions at approximately 10 mmHg. Normal saline solution was given as necessary to maintain Pwp relatively constant.
Statistics included one way analysis of variance for repeated measures and Student Newman Keuls' multiple comparison test. The results are reported mean±1SD.

[3] = post sepsis (3.5 h), before chitobiose

CC(=O)N[C@H]1[C@H](O[C@H]2[C@H](O)[C@@H](NC(C)=O)C(O)O[C@@H]2CO)O[C@H](CO)[C@@H](O[C@@H]2O[C@H](CO)[C@@H](O)[C@H](O)[C@H]2NC(C)=O)[C@@H]1O (some centres unmarked) [TAC, N,N′,N″ triacetylglucosamine]
Effect of pretreatment on the reduction in adrenergic response caused by Lzm-S [1]: prevented the reduction in adrenergic response

CC(=O)N[C@H]1[C@H](O[C@H]2[C@H](O)[C@@H](NC(C)=O)C(O)O[C@@H]2CO)O[C@H](CO)[C@@H](O)[C@@H]1O (some centres unmarked) [chitobiose, N,N′ diacetylglucosamine]
Stroke work post treatment vs 3.5 hrs postsepsis ([2]; 1 and 2 hrs post treatment): significant increase in stroke-work at 1 and 2 hrs post treatment; also recorded: increased after chitobiose treatment | HR ([2]; 1 hr post treatment): 86±20 | Pwp ([2]; 1 hr post treatment): 9.5±1.2 mmHg | HR ([2]; 2 hrs post treatment): 87±12 | Pwp ([2]; 2 hrs post treatment): 9.9±0.9 mmHg | HR ([2]; after treatment): 91±25 | HR ([2]; baseline): 48±9 | Pwp ([2]; baseline): 10±0.8 mmHg | Mean arterial pressure after treatment vs 3.5 hrs postsepsis ([2]; chitobiose 1000 mg over 0.5 h at 3.5 h post sepsis, then 100 mg/hr, 4 dogs): significant increase in mean arterial pressure after treatment; also recorded: increased after treatment with chitobiose | Myocardial depression already developed in sepsis ([2]; chitobiose administered after 3.5 hr of sepsis): reversal of the myocardial depression observed | Cardiac output vs baseline ([2]; dog, in vivo): higher at the different conditions as compared with baseline | Stroke work at the post treatment conditions vs baseline ([2]; dog, in vivo): not different from that found at baseline | Stroke-volume among the treatment conditions ([2]; dog, in vivo): did not reach statistical significance | HR [2, 3]: 98±24 | Pwp [2, 3]: 9.6±0.8 mmHg | Pwp ([2]; post treatment): 10.4±0.5
